{"source": "patent US20260240863A1", "about": "“COMBINATION OF ROGINOLISIB AND HDAC INHIBITOR IN THE TREATMENT OF HAEMATOLOGICAL MALIGNANCY” (IONCTURA SA, priority 2023, published 2026)", "key": {"JVM2 (MCL) cell line": {"tested_on": "JVM2 (MCL) cell line", "experiment": "MTT antiproliferation combination assay, Chou-Talalay Combination Index, JVM2", "assay_type": "cell-based", "settings": "HDAC inhibitor in combination with Compound 1, 72 hours", "method": "(§1) Cell lines from different haematological malignancies were exposed to increasing doses of Compound 1, to increasing doses of HDAC inhibitor, and to increasing doses of the combination of Compound 1 and HDAC inhibitor. Compound 1 and Vorinostat were used at a maximum concentration of 10 μM, following an eight fold dose response design based on 1:3 compound dilutions plus an untreated control. Belinostat was used at a maximum concentration of 10 μM, following an eight fold dose response design based on 1:4 compound dilutions plus an untreated control.\n(§2) Cells were incubated for 72 hours at 37° C. and 5% CO2. The antiproliferative effect of single and combination treatments were determined by adding 20 μL MTT [3-(4,5-dimethylthiazolyl-2)-2,5-diphenyltetrazoliumbromide] reagent (Sigma Aldrich, Buchs, Switzerland) to each well and the plates were incubated at 37° C. for 4 hours, followed by adding 50 μL of sodium dodecyl sulfate (SDS) (250 µM SDS, 0.21% fuming HCl) lysis buffer. The lysed cells were kept overnight, and then the absorbance was read at 570 nm using the Cytation 3 instrument (BioTek, Winoosku, VT, USA). The effect of the combinations was determined according to the Chou-Talalay Combination Index (CI) (Chou 2008, Chou 2010) and calculated with the Synergy R package (Lee 2007). […]"}, "MEC1 (CLL) cell line": {"tested_on": "MEC1 (CLL) cell line", "experiment": "MTT antiproliferation combination assay, Chou-Talalay Combination Index, MEC1", "assay_type": "cell-based", "settings": "HDAC inhibitor in combination with Compound 1, 72 hours", "method": "as §1, §2"}, "Farage (DLBCL) cell line": {"tested_on": "Farage (DLBCL) cell line", "experiment": "MTT antiproliferation combination assay, Chou-Talalay Combination Index, Farage", "assay_type": "cell-based", "settings": "HDAC inhibitor in combination with Compound 1, 72 hours", "method": "as §1, §2"}, "TMD8 (DLBCL) cell line": {"tested_on": "TMD8 (DLBCL) cell line", "experiment": "MTT antiproliferation combination assay, Chou-Talalay Combination Index, TMD8", "assay_type": "cell-based", "settings": "HDAC inhibitor in combination with Compound 1, 72 hours", "method": "as §1, §2"}, "[1]": {"tested_on": "A20 (murine B-cell lymphoma) cell line", "experiment": "MTT antiproliferation combination assay, Chou-Talalay Combination Index, A20", "assay_type": "cell-based", "settings": "HDAC inhibitor in combination with Compound 1, 72 hours", "method": "as §1, §2"}, "DNMT": {"tested_on": "DNMT", "settings": "more than that of azacytidine; cited from earlier work"}, "[2]": {"settings": "clinical use of Vorinostat; cited from earlier work"}}, "data": [{"smiles": "O=C(/C=C/c1cccc(S(=O)(=O)Nc2ccccc2)c1)NO", "note": "[Belinostat, (2E)-N-Hydroxy-3-[3-(phenylsulfamoyl)phenyl]prop-2-enamide]", "values": [{"measurement": "Cl value (median)", "setting": "JVM2 (MCL) cell line", "value": 0.62}, {"measurement": "Cl value (median)", "setting": "MEC1 (CLL) cell line", "value": 0.45}, {"measurement": "Cl value (median)", "setting": "Farage (DLBCL) cell line", "value": 0.51}, {"measurement": "Cl value (median)", "setting": "TMD8 (DLBCL) cell line", "value": 0.87}, {"measurement": "Cl value (median)", "setting": "[1]", "value": 0.87}]}, {"smiles": "Nc1ncn([C@H]2C[C@H](O)[C@@H](CO)O2)c(=O)n1", "note": "[Decitabine, 5-aza-2′-deoxycytidine]", "values": [{"measurement": "inhibitory activity of DNMT relative to azacytidine", "setting": "DNMT", "value": 30, "unit": "times"}]}, {"smiles": "O=C(CCCCCCC(=O)Nc1ccccc1)NO", "note": "[Vorinostat, N-Hydroxy-N′-phenyloctanediamide]", "values": [{"measurement": "Cl value (median)", "setting": "JVM2 (MCL) cell line", "value": 0.71}, {"measurement": "pulmonary embolism (thromboembolic, most common life-threatening event)", "setting": "[2]", "value": 4, "unit": "%"}, {"measurement": "Cl value (median)", "setting": "MEC1 (CLL) cell line", "value": 0.83}, {"measurement": "Cl value (median)", "setting": "Farage (DLBCL) cell line", "value": 0.69}]}]}
